Legend:
[1] = biological target: T1, Prostaglandin G/H synthase 1 (Homo sapiens, UniProt P23219); conditions: at 10 µM
Description: Percentage inhibition activity at a concentration of 10 uM against cyclooxygenase 1 with the compound dissolved in DMSO

[2] = biological target: T2, Prostaglandin G/H synthase 2 (Homo sapiens) (UniProt P35354); conditions: at 10 µM
T2 sequence (whole entry): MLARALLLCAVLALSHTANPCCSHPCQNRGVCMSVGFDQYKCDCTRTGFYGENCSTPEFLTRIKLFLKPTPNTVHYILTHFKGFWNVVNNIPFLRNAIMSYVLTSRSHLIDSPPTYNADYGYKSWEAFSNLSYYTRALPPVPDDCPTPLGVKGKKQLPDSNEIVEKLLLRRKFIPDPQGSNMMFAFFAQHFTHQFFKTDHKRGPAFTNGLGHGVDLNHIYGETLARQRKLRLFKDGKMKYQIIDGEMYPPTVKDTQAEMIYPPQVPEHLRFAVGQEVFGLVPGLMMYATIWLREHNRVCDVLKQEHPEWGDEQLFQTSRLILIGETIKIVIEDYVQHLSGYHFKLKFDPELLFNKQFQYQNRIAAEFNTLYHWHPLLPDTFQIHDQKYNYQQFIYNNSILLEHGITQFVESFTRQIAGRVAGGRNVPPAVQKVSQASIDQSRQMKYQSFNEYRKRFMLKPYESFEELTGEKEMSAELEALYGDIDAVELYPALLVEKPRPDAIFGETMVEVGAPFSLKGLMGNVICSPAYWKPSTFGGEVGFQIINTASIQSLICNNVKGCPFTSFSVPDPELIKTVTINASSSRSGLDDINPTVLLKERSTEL
Description: Percentage inhibition activity at a concentration of 10 uM against cyclooxygenase 2 with the compound dissolved in DMSO

[3] = Inhibition of growth of H630 cell line after 72 hours of exposure time with the compound dissolved in DMSO; format: functional, cell-based; conditions: Homo sapiens, NCI-H630, 72 h
[4] = Inhibition of growth of H630 cell line after 96 hours of exposure time with the compound dissolved in DMSO; format: functional, cell-based; conditions: Homo sapiens, NCI-H630, 96 h
HT-29 [5] = experiment: Inhibition of growth of HT-29 cell line after 72 hours of exposure time with the compound dissolved in DMSO; format: functional, cell-based; conditions: Homo sapiens, HT-29, 72 h
HT-29 [6] = experiment: Inhibition of growth of HT-29 cell line after 96 hours of exposure time with the compound dissolved in DMSO; format: functional, cell-based; conditions: Homo sapiens, HT-29, 96 h
HCT-116 = experiment: Inhibition of growth of HCT116 cell line after 72 hours of exposure time with the compound dissolved in DMSO; format: functional, cell-based; conditions: Homo sapiens, HCT-116, 72 h
[7] = Inhibition of growth of HCT116 cell line after 96 hours of exposure time with the compound dissolved in DMSO; format: functional, cell-based; conditions: Homo sapiens, HCT-116, 96 h
HT-29 [8] = experiment: Inhibition of growth of HT-29 cell line after 24+72 hours of exposure time with the compound dissolved in DMSO; format: functional, cell-based; conditions: Homo sapiens, HT-29, 72 h
HT-29 [9] = experiment: Inhibition of growth of HT-29 cell line after 72+72 hours of exposure time with the compound dissolved in DMSO; format: functional, cell-based; conditions: Homo sapiens, HT-29, 72 h
DLD-1 [10] = experiment: Inhibition of growth of DLD-1 cell line after 72 hours of exposure time with the compound dissolved in DMSO; format: functional, cell-based; conditions: Homo sapiens, DLD-1, 72 h
HCT-8 [11] = experiment: Inhibition of growth of HCT-8 cell line after 72 hours of exposure time with the compound dissolved in DMSO; format: functional, cell-based; conditions: Homo sapiens, HCT-8, 72 h
HCT-8 [12] = experiment: Inhibition of growth of HCT-8 cell line after 96 hours of exposure time with the compound dissolved in DMSO; format: functional, cell-based; conditions: Homo sapiens, HCT-8, 96 h
DLD-1 [13] = experiment: Inhibition of growth of DLD-1 cell line after 24+72 hours of exposure time with the compound dissolved in DMSO; format: functional, cell-based; conditions: Homo sapiens, DLD-1, 72 h
DLD-1 [14] = experiment: Inhibition of growth of DLD-1 cell line after 72+72 hours of exposure time with the compound dissolved in DMSO; format: functional, cell-based; conditions: Homo sapiens, DLD-1, 72 h
[15] = Inhibition of growth of HCT116 cell line after 24+72 hours of exposure time with the compound dissolved in DMSO; format: functional, cell-based; conditions: Homo sapiens, HCT-116, 72 h
[16] = Inhibition of growth of HCT116 cell line after 72+72 hours of exposure time with the compound dissolved in DMSO; format: functional, cell-based; conditions: Homo sapiens, HCT-116, 72 h
DLD-1 [17] = experiment: Inhibition of growth of DLD-1 cell line after 96 hours of exposure time with the compound dissolved in DMSO; format: functional, cell-based; conditions: Homo sapiens, DLD-1, 96 h
[18] = biological target: T1, Prostaglandin G/H synthase 1; experiment: In vitro inhibition activity against cyclooxygenase 1 with the compound dissolved in DMSO
[19] = biological target: T3, Prostaglandin G/H synthase 2 (Homo sapiens, UniProt P35354); experiment: In vitro inhibition activity against cyclooxygenase 2 with the compound dissolved in DMSO
T3 sequence (P35354 whole entry): T2 sequence (whole entry)

T1 sequence (P23219 whole entry): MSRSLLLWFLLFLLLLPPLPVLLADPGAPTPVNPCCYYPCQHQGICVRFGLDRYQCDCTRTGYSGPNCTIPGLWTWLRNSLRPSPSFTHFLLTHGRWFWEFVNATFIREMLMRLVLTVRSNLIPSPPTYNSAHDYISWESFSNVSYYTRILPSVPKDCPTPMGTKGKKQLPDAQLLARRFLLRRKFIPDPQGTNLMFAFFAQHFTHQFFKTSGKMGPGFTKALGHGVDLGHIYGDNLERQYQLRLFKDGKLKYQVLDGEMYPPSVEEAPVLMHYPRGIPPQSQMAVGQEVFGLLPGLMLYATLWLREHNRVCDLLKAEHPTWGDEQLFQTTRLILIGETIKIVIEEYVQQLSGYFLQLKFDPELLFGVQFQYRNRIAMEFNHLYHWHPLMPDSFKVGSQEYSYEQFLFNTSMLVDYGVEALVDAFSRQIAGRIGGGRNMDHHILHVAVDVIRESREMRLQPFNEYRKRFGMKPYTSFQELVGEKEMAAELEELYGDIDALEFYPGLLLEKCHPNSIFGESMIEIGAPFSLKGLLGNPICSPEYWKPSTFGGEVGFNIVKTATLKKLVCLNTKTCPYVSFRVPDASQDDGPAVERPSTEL

Q: For `CCCN1C(=O)CS/C1=N/c1ccccc1`, which inhibition [1] is on record?
A: 8%

Q: What about the inhibition [2] of the same compound?
A: 0%

Q: Which IC50 [3] does the source give for `O=C1NC(=O)/C(=C/c2cccc(C(F)(F)F)c2)S1` here?
A: 97.6 µM

Q: What about the IC50 [4] of the same compound?
A: 83.2 µM

Q: What about the IC50 (HT-29 [5]) of the same compound?
A: 38.8 µM

Q: What about the IC50 (HT-29 [6]) of the same compound?
A: 59.7 µM

Q: What about the IC50 (HCT-116) of the same compound?
A: 48.8 µM

Q: And the IC50 [7]?
A: 45.5 µM

Q: What about the IC50 (HT-29 [8]) of the same compound?
A: 71.7 µM

Q: And the IC50 (HT-29 [9])?
A: 31.4 µM

Q: What about the IC50 (DLD-1 [10]) of the same compound?
A: 37.4 µM

Q: And the IC50 (HCT-8 [11])?
A: 100 µM

Q: What about the IC50 (HCT-8 [12]) of the same compound?
A: 82.2 µM

Q: What about the IC50 (DLD-1 [13]) of the same compound?
A: 40.1 µM

Q: What about the IC50 (DLD-1 [14]) of the same compound?
A: 31.4 µM

Q: What about the IC50 [15] of the same compound?
A: 91.7 µM

Q: And the IC50 [16]?
A: 36.8 µM

Q: And the IC50 (DLD-1 [17])?
A: 17.8 µM

Q: And the inhibition [1]?
A: 0%

Q: And the inhibition [2]?
A: 0%

Q: Which IC50 [18] does the source give for `COc1ccc(C2SCC(=O)N2CCN2C(=O)CSC2c2ccc(OC)cc2)cc1` (stereo not given) here?
A: 53.7 µM

Q: And the IC50 [19]?
A: 1.12 µM

Q: Which IC50 [3] does the source give for `CCCN1C(=O)/C(=C/c2cccc(OC)c2)S/C1=N/c1ccccc1` here?
A: > 100 µM

Q: What about the IC50 [4] of the same compound?
A: > 100 µM

Q: And the IC50 (HT-29 [5])?
A: 64.1 µM

Q: What about the IC50 (HT-29 [6]) of the same compound?
A: 23.4 µM

Q: What about the IC50 (HCT-116) of the same compound?
A: > 100 µM

Q: What about the IC50 [7] of the same compound?
A: 34.2 µM

Q: What about the IC50 (HT-29 [8]) of the same compound?
A: 92.8 µM

Q: And the IC50 (HT-29 [9])?
A: 36.2 µM

Q: And the IC50 (DLD-1 [10])?
A: > 100 µM

Q: And the IC50 (HCT-8 [11])?
A: > 100 µM

Q: And the IC50 (HCT-8 [12])?
A: > 100 µM

Q: What about the IC50 (DLD-1 [13]) of the same compound?
A: > 100 µM

Q: What about the IC50 (DLD-1 [14]) of the same compound?
A: > 100 µM

Q: And the IC50 [15]?
A: > 100 µM

Q: What about the IC50 [16] of the same compound?
A: > 100 µM

Q: What about the IC50 (DLD-1 [17]) of the same compound?
A: 13.1 µM

Q: And the inhibition [1]?
A: 0%

Q: What about the inhibition [2] of the same compound?
A: 24%

Reference: ChEMBL document CHEMBL1139589, “In vitro antiproliferative activity against human colon cancer cell lines of representative 4-thiazolidinones. Part I” (Bioorg Med Chem Lett, 2005)
